{
  "source": "ChEMBL document CHEMBL2440098",
  "about": "“Binding mode characterization of 6α- and 6β-N-heterocyclic substituted naltrexamine derivatives via docking in opioid receptor crystal structures and site-directed mutagenesis studies: application of the 'message-address' concept in development of mu opioid receptor selective antagonists” (Bioorg Med Chem, 2013)",
  "key": {"[1]": {"experiment": "Binding affinity to MOR Y210A mutant (unknown origin) expressed in CHO cells after 15 mins by Ca2+ mobilization assay", "assay_type": "cell-based, Homo sapiens"}, "Mu-type opioid receptor [2]": {"target": "T1, Mu-type opioid receptor (Homo sapiens, UniProt P35372)", "T1 sequence (P35372 whole entry)": "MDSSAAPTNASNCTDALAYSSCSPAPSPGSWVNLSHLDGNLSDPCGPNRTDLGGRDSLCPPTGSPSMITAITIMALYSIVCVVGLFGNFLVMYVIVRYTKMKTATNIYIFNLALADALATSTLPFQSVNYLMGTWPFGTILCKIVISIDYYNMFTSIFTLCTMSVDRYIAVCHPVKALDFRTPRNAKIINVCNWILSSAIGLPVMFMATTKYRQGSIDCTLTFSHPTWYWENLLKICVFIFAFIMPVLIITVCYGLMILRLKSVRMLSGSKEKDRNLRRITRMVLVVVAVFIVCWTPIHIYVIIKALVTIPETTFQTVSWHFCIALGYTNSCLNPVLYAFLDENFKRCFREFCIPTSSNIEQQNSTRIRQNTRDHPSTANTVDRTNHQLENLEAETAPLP", "experiment": "Binding affinity to wild type MOR (unknown origin) expressed in CHO cells after 15 mins by Ca2+ mobilization assay", "assay_type": "cell-based"}, "Mu-type opioid receptor [3]": {"target": "T1, Mu-type opioid receptor"}},
  "data": [
    {"smiles": "O=C(N[C@H]1CC[C@@]2(O)[C@H]3Cc4ccc(O)c5c4[C@@]2(CCN3CC2CC2)[C@H]1O5)c1cc2ccccc2cn1", "values": [
      {"measurement": "IC50", "setting": "[1]", "result": 3.31, "unit": "nM"},
      {"measurement": "Ki", "setting": "[1]", "result": 1.57, "unit": "nM"},
      {"measurement": "Ki", "setting": "Mu-type opioid receptor [2]", "result": 2.57, "unit": "nM"},
      {"measurement": "IC50", "setting": "Mu-type opioid receptor [3]", "result": 150, "unit": "nM"}
    ]}
  ]
}
